Publication PMC10239048, “Synthesis and antioxidant, antimicrobial, and antiviral activity of some pyrazole-based heterocycles using a 2(3H)-furanone derivative” (Journal of the Iranian Chemical Society, 2023)
In brackets after ≈: the same amount, converted by molar mass.

Assays:
[1] = Total antioxidant capacity (TAC), phosphomolybdenum method; conditions: for Total antioxidant capacity: 500 µg/ml in methanol, 95 °C 90 min, 695 nm, means ± S.D., n = 3
Staphylococcus aureus [2] = assay: Agar/disk diffusion inhibition zone, Staphylococcus aureus; format: cell-based; conditions: diffusion method
SPF chicks = assay: Immune-boosting properties in vaccinated SPF chicks (humeral response); format: in vivo, chicken
Staphylococcus aureus [3] = assay: MIC measurement by serial dilution, Staphylococcus aureus; format: cell-based; conditions: 37 °C, 24–72 h, read-out: MIC Staph (Gram + ve)
Candida albicans = assay: Agar diffusion antifungal activity, Candida albicans; format: cell-based; conditions: diffusion method
[4] = system: embryonated chicken SPF eggs; conditions: in vivo
Haemophilus (Gram –ve) [5] = assay: Agar/disk diffusion inhibition zone, Haemophilus; format: cell-based; conditions: diffusion method
[6] = system: avian influenza HPAI-H5N1 (AIV); set-up: species or system avian influenza virus HPAI-H5N1; conditions: in vivo
Haemophilus (Gram –ve) [7] = assay: MIC measurement by serial dilution, Haemophilus; format: cell-based; conditions: read-out: MIC Haemophilus (Gram –ve)
[8] = system: avian influenza HPAI-H5N1 (AIV); set-up: species or system avian influenza virus HPAI-H5N1; conditions: in vivo; remark: listed apart in the source

Structure (SMILES) | melting point [°C] | Antioxidant activity (in words) [1] | Total antioxidant capacity [1] [mg AAE/g dry compound] | Inhibition diameter Staph (Gram + ve) (Staphylococcus aureus [2]) [mm] | Humeral response of vaccinated groups which received each tested compound separately (SPF chicks; SPF chicks, vaccine-only group 7 log2) [log2] | Immune-boosting properties (in words) (SPF chicks; antibody titer in serum of vaccinated chicks) | MIC (Staphylococcus aureus [3]) [µg/mL] | Candida albicans (diameter of inhibition zone) (Candida albicans) [mm] | CC50 [4] | Inhibition diameter Haemophilus (Gram –ve) (Haemophilus (Gram –ve) [5]) [mm] | Antiviral activity against avian influenza virus (in words) [6] | Virus titer with compound [6] | MIC (Haemophilus (Gram –ve) [7]) [µg/mL] | TI [8]
CC(=O)NN1C(=O)C(=Cc2c(C)nn(-c3ccccc3)c2Cl)C=C1c1ccc(C)cc1 [Compound 12, N-(3-((5-Chloro-3-methyl-1-phenyl-1H-pyrazol-4-yl)methylene)-2-oxo-5-(p-tolyl)-2,3-dihydro-1H-pyrrol-1-yl)acetamide] | 114 to 116 | Moderate antioxidant activity | 163.0 ± 1.75 | – | – | – | – | – | – | – | – | – | – | –
Cc1ccc(C2=CC(=Cc3c(C)nn(-c4ccccc4)c3Cl)C(=O)N2Cc2ccccc2)cc1 | 152 to 154 | – | – | – | – | – | – | – | – | – | – | – | – | –
Cc1ccc(C(=O)CC(=Cc2c(C)nn(-c3ccccc3)c2Cl)C2=NCCN2)cc1 [Compound 11, 4-(5-Chloro-3-methyl-1-phenyl-1H-pyrazol-4-yl)-3-(4,5-dihydro-1H-imidazol-2-yl)-1-(p-tolyl)but-3-en-1-one] | – | – | 280.0 ± 2.0 | 25 | 7.1 | special immune-boosting properties | 5 | 24 | 500 > µl/ egg | 22 | remarked antiviral activity | 10^1 | 2 (≈ 4.77 µM) | 83.3
